Data as given in patent publication US7932289B2, “Remedy for diabetes” (Takeda Pharmaceutical Company Limited, priority 2004, dated 2011).

System: type 2 diabetic rats with sulfonylurea secondary failure (N-STZ-1.5 rat)
Settings: for Increment of plasma insulin level: 0 to 10 minutes after oral glucose loading (1 g/kg); for Increment of plasma insulin level / Increment of plasma glucose level: drug 10 mg/kg orally 30 min before glucose, male N-STZ-1.5 rats made glibenclamide-refractory, mean, n=6; for Increment of plasma glucose level: 0 to 60 minutes after oral glucose loading (1 g/kg); for plasma glucose level lowering effect / plasma insulin level increasing effect: in words, type 2 diabetic rats with sulfonylurea secondary failure, 10 mg/kg orally; for plasma glucose level lowering effect: summary of Table 1; for plasma insulin level increasing effect: summary of Table 2
Description: Streptozocin (STZ) (120 mg/kg body weight) was administered to a 1.5-day-old male WKY rat to prepare a type 2 diabetes model N-STZ-1.5 rat.
Glibenclamide (10 mg/kg body weight/day) was orally administered to the N-STZ-1.5 rats (male, 18 rats) every day for 4 consecutive weeks.
At 30 min after the administration, 1 g/kg body weight of a glucose solution was orally administered to each rat, and blood samples were collected from the rat tail vein before administration of the glucose solution and at 10, 30, 60 and 120 minutes after administration of the glucose solution, and the plasma glucose level and plasma insulin level were measured.
The plasma glucose level was measured using an L type Wako Glu2 (trade name, Wako Pure Chemical Industries, Ltd.) according to an enzyme method, and the plasma insulin level was measured using a SHIONORIA insulin kit (trade name, Shionogi & Co., Ltd.) by a radioimmunoassay.
In the Tables, the values show mean values (n=6).

Row | Structure (SMILES) | Increment of plasma insulin level | Increment of plasma glucose level | plasma glucose level lowering effect | plasma insulin level increasing effect
1 | Cc1cccc(C)c1-c1cccc(COc2ccc(CCC(=O)O)cc2)c1 [Compound A, 4-([2′,6′-dimethyl-1,1′-biphenyl]-3-ylmethoxy)benzenepropanoic acid] | 42.76 μU/ml | 107.12 mg/dL | superior plasma glucose level lowering effect | superior plasma insulin level increasing effect
2 | COc1ccc(Cl)cc1C(=O)NCCc1ccc(S(=O)(=O)NC(=O)NC2CCCCC2)cc1 [glibenclamide] | 29.37 μU/ml | 178.40 mg/dL | failed to show a plasma glucose level lowering effect | hardly showed a plasma insulin level increasing effect
